How the values were obtained:
central nervous system = experiment: climbing test on albino mice, sedative action on the central nervous system; format: in vivo; conditions: Mus musculus, po, read-out: Sedative action % (percentage of animals which no longer take up the climbing work); for responders at 8 mg/kg: dose 8 mg/kg p.o.; for responders at 10 mg/kg: dose 10 mg/kg p.o.
Protocol: The pharmacological investigation of the sedative action on the central nervous system was carried out using the climbing tests on albino mice described by P. K. KNEIP: Arch. int. pharmacodyn 126, 238 (1960) and R. DOMENJOZ and W. THEOBALD: Arch. int. pharmacodyn 120, 450 (1959).
In the table which follows, the results of the pharmacological investigations carried out are summarised. In the last table under the heading "Sedative action %" there is given the percentage of the experimental animals which no longer take up the normally readily assumed climbing work.

[1] = LD50 (mouse), acute toxicity; conditions: in vivo

| SMILES | responders at 8 mg/kg (central nervous system) [%] | LD50 ([1]; ip) [mg/kg] | further results |
| --- | --- | --- | --- |
| Cc1ccc(N(C)C(=O)CNC(C)CC#N)c(C(=O)c2ccccc2)c1 (stereo not shown) | 70 | 300 |  |
| CN(C(=O)CNCC#N)c1ccc(Cl)cc1C(=O)c1ccccc1 [2-(4-Cyano-N-methyl-3-aza-butanamido)-5-chlor-benzophenone] | 60 | 170 |  |
| COC(=O)CNCC(=O)N(C)c1ccc(Cl)cc1C(=O)c1ccccc1 [2-(4-Methoxycarbonyl-N-methyl-3-aza-butanamido)-5-chlor-benzophenone] |  |  | responders at 10 mg/kg (central nervous system): 50%; LD50 ([1]; po): 950 mg/kg |
| CN(CCC(=O)O)CC(=O)Nc1ccc(Cl)cc1C(=O)c1ccccc1 [2-(5-Carboxy-3-methyl-3-aza-pentanamido)-5-chlor-benzophenone] | 90 | 450 |  |
| C=CCN(CCC#N)CC(=O)Nc1ccc(Cl)cc1C(=O)c1ccccc1Cl [2-(5-Cyano-3-allyl-3-aza-pentanamido)-2'-5-dichlor-benzophenone] | 60 | 630 |  |
| CC(C#N)CNCC(=O)Nc1ccc(Cl)cc1C(=O)c1ccccc1 (stereo not shown) [2-(5-Cyano-3-aza-hexanamid0)-5-chlor-benzophenone] | 50 | 600 |  |
| CC(CC#N)NCC(=O)Nc1ccccc1C(=O)c1ccccc1 (stereo not shown) [2-(5-Cyano-4-methyl-3-aza-pentanamido)-benzophenone] |  |  | responders at 10 mg/kg (central nervous system): 50%; LD50 ([1]; po): > 1000 mg/kg |
| CC(CC#N)N(C)CC(=O)N(C)c1ccc(Cl)cc1C(=O)c1ccccc1 (stereo not shown) [2-(5-Cyano-N,3,4-trimethyl-3-aza-pentanamido)-5-chlor-benzophenone] |  | 320 | responders at 9 mg/kg (central nervous system; dose 9 mg/kg p.o.): 50% |
| CC(C#N)CN(C)CC(=O)N(C)c1ccc([N+](=O)[O-])cc1C(=O)c1ccccc1 (stereo not shown) [2-(5-Cyano-N,3-dimethyl-3-aza-hexanamido)-5-nitro-benzophenone] |  | 480 | responders at 10 mg/kg (central nervous system): 60%; LD50 ([1]; po): 1100 mg/kg |
| CN(CCC#N)CC(=O)N(C)c1ccc(Cl)cc1C(=O)c1ccccc1 [2-(5-Cyano-N,3-dimethyl-3-aza-pentanamido)-5-chlor-benzophenone] | 50 | 240 |  |
| CN(CCC#N)CC(=O)N(C)c1ccc([N+](=O)[O-])cc1C(=O)c1ccccc1 [2-(5-Cyano-N,3-dimethyl-3-aza-pentanamido)-5-nitro-benzophenone] |  |  | responders at 10 mg/kg (central nervous system): 50%; LD50 ([1]; po): > 1000 mg/kg |
| CC(CC#N)NCC(=O)N(C)c1ccc(Cl)cc1C(=O)c1ccccc1 (stereo not shown) [2-(5-Cyano-N,4-dimethyl-3-aza-pentanamido)-5-chlor-benzophenone] | 50 | 315 |  |
| COc1ccc(N(C)C(=O)CNC(C)CC#N)c(C(=O)c2ccccc2)c1 (stereo not shown) [2-(5-Cyano-N,4-dimethyl-3-aza-pentanamido)-5-methoxy-benzophenone] | 60 | 250 |  |
| CC(CC#N)NCC(=O)N(C)c1ccccc1C(=O)c1ccccc1 (stereo not shown) [2-(5-Cyano-N,4-dimethyl-3-aza-pentanamido)-benzophenone] | 70 | 320 |  |
| COc1ccc(N(C)C(=O)CNCCC#N)c(C(=O)c2ccccc2)c1 [2-(5-Cyano-N-methyl-3-aza-pentanamido)-5-methoxy-benzophenone] | 50 |  |  |
| Cc1ccc(N(C)C(=O)CNCCC#N)c(C(=O)c2ccccc2)c1 [2-(5-Cyano-N-methyl-3-aza-pentanamido)-5-methyl-benzophenone] | 50 |  |  |
| CCCCN(CCC#N)CC(=O)N(C)c1ccc(Cl)cc1C(=O)c1ccccc1 [2-(5-Cyano-N-methyl-3-n-butyl-3-aza-pentanamido)-5-chlor-benzophenone] | 80 | 360 |  |
| CCCCN(CCC#N)CC(=O)N(C)c1ccc([N+](=O)[O-])cc1C(=O)c1ccccc1 [2-(5-Cyano-N-methyl-3-n-butyl-3-aza-pentanamido)-5-nitro-benzophenone] | 50 | 680 |  |
| CCOC(=O)CCNCC(=O)Nc1ccc(Cl)cc1C(=O)c1ccccc1Cl [2-(5-ethoxycarbonyl-3-aza-pentanamido)-2',5-dichlor-benzophenone] | 70 |  |  |
| CCOC(=O)CCNCC(=O)N(C)c1ccc(C)cc1C(=O)c1ccccc1 [2-(5-ethoxycarbonyl-N-methyl-3-aza-pentanamido)-5-methyl-benzophenone] | 50 |  |  |
| CCOC(=O)CCNCC(=O)N(C)c1ccc(SC)cc1C(=O)c1ccccc1 [2-(5-ethoxycarbonyl-N-methyl-3-aza-pentanamido)-5-methylmerkapto-benzophenone] | 60 |  |  |
| CCOC(=O)CCNCC(=O)N(C)c1ccc(C(F)(F)F)cc1C(=O)c1ccccc1 [2-(5-ethoxycarbonyl-N-methyl-3-aza-pentanamido)-5-trifluormethyl-benzophenone] | 60 | 400 |  |
| CN(CCCC#N)CC(=O)Nc1ccc(Cl)cc1C(=O)c1ccccc1 [2-(6-Cyano-3-methyl-3-aza-hexanamido)-5-chlor-benzophenone] | 60 |  |  |
| CCOC(=O)CCCNCC(=O)Nc1ccc([N+](=O)[O-])cc1C(=O)c1ccccc1 [2-(6-ethoxycarbonyl-3-aza-hexanamido)-5-nitro-benzophenone] | 50 |  |  |
| CCOC(=O)CCCNCC(=O)N(C)c1ccc([N+](=O)[O-])cc1C(=O)c1ccccc1 [2-(6-ethoxycarbonyl-N-methyl-3-aza-hexanamido)-5-nitro-benzophenone] | 60 | 650 |  |
| CCCC(C)(COC(N)=O)COC(N)=O [Meprobamate, reference compound] |  | 620 | responders at 70 mg/kg (central nervous system; dose 70 mg/kg p.o., comparative preparation): 50% |
